According to patent publication US20170334899A1, “AMINO-SUBSTITUTED ISOTHIAZOLES” (Bayer Pharma Aktiengesellschaft, priority 2014, published 2017):

How the values were obtained:
[1] = system: human cervical tumor cell line HeLa (ATCC CCL-2); assay: SAC-Formation - Nocodazole-Induced Assay; type: cell-based; details: Homo sapiens, HeLa, 24 h, HeLa cells, nocodazole 0.1 μg/ml together with test compound, decrease of mitotic cells (phospho-histone H3 Ser10)
In short: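 Loss of phospho-histone H3 Ser10-positive cells, counted against Hoechst-stained nuclei by high-content imaging, marked mitotic breakthrough. Compounds (0.005–20 μM, 0.5% DMSO) were co-dosed with 0.1 μg/ml nocodazole onto HeLa cells for 24 h at 37 °C. Curves were fitted with a four-parameter Hill equation.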

[2] = biological target: T1, catalytic domain of human Bub1 (amino acids 704-1085) (Homo sapiens, UniProt O43683); assay: Bub1 kinase assay (TR-FRET); type: biochemical; details: 10 μM ATP, avg, read-out: Bub1 avg (IC50 [mol/l])
T1 construct: catalytic domain of human Bub1 (amino acids 704-1085); His6 (N); made in house; host or cells: insect cells (Hi5)
T1 sequence (O43683 704-1085): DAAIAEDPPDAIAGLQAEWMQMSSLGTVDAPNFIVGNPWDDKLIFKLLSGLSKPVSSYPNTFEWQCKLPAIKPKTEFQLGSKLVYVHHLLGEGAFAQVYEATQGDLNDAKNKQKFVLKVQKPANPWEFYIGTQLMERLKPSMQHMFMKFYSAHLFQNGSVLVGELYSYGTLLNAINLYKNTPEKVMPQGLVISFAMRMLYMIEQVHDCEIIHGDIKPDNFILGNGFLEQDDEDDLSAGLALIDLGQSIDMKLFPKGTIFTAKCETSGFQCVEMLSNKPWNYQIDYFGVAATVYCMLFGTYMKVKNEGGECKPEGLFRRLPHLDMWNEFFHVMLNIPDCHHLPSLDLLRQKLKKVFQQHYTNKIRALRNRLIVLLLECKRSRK
In short: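 Readout is the 665/620 nm TR-FRET ratio from anti-phosphoserine antibody, Eu-labelled anti-mouse IgG and streptavidin-XL665, scaled between no-enzyme and uninhibited controls. Reaction: 1 μM biotinylated peptide, 10 μM ATP, 60 min, 22 °C, after 15 min compound preincubation with His6-Bub1 (704-1085, insect-expressed, ~200 ng/ml).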

| IC50 [1] [µM] | IC50 [2] [µM] | Structure (SMILES) |
| --- | --- | --- |
| 1 | > 20 | Cc1nsc(Nc2cnc3ccccc3n2)c1C(=O)Nc1ccc(OCCC(=O)OC(C)(C)C)nc1 [Example 198, tert-butyl 3-{[5-({[3-methyl-5-(quinoxalin-2-ylamino)-1,2-thiazol-4-yl]carbonyl}amino)pyridin-2-yl]oxy}propanoate] |
| 0.089 | > 20 | Cc1nsc(Nc2cc(C#N)ccn2)c1C(=O)Nc1ccc(Oc2cccc(C(F)(F)F)c2)nc1 [Example 230, 5-[(4-cyanopyridin-2-yl)amino]-3-methyl-N-{6-[3-(trifluoromethyl)phenoxy]pyridin-3-yl}-1,2-thiazole-4-carboxamide] |
| 4.7 | > 20 | Cc1nsc(Nc2cnc3ccccc3n2)c1C(=O)Nc1ccc(Oc2ccc(SC(F)(F)F)cc2)nc1 [Example 233, 3-methyl-5-(quinoxalin-2-ylamino)-N-(6-{4-[(trifluoromethyl)sulfanyl]phenoxy}pyridin-3-yl)-1,2-thiazole-4-carboxamide] |
| 0.26 | > 20 | Cc1nsc(Nc2cnc3ccccc3n2)c1C(=O)Nc1ccc(C(=O)OC(C)(C)C)cc1 [Example 181, tert-butyl 4-({[3-methyl-5-(quinoxalin-2-ylamino)-1,2-thiazol-4-yl]carbonyl}amino)benzoate] |

Second part, the compound before the results:

| Structure (SMILES) | IC50 [1] [µM] | IC50 [2] [µM] |
| --- | --- | --- |
| Cc1nsc(Nc2cnc(C(F)(F)F)cn2)c1C(=O)Nc1ccc(OCCNC(=O)OC(C)(C)C)c(F)c1 [Example 215, tert-butyl [2-(2-fluoro-4-{[(3-methyl-5-{[5-(trifluoromethyl)pyrazin-2-yl]amino}-1,2-thiazol-4-yl)carbonyl]amino}phenoxy)ethyl]carbamate] | 0.21 | > 20 |
| Cc1nsc(Nc2cnc3ccccc3n2)c1C(=O)Nc1ccc(OC2CCN(C(=O)OC(C)(C)C)CC2)nc1 [Example 18, tert-Butyl 4-{[5-({[3-methyl-5-(quinoxalin-2-ylamino)-1,2-thiazol-4-yl]carbonyl}-amino)pyridin-2-yl]oxy}piperidine-1-carboxylate] | 0.044 | ≥ 20 |
| Cc1nsc(Nc2cnc(C(F)(F)F)cn2)c1C(=O)Nc1ccc(OC2CCN(C)CC2)nc1 [Example 220, 3-methyl-N-{6-[(1-methylpiperidin-4-yl)oxy]pyridin-3-yl}-5-{[5-(trifluoromethyl)pyrazin-2-yl]amino}-1,2-thiazole-4-carboxamide] | 1.1 | > 20 |
| CNS(=O)(=O)c1ccc(NC(=O)c2c(C)nsc2Nc2cncc(C(F)(F)F)n2)cc1 [Example 211, 3-methyl-N-[4-(methylsulfamoyl)phenyl]-5-{[6-(trifluoromethyl)pyrazin-2-yl]amino}-1,2-thiazole-4-carboxamide] | 0.096 | 4.3 |
